Where two headings read alike, the source gives them in different places.
Columns and labels:
[1] = cited from earlier work
[2] = cited from earlier work; remark: listed apart in the source
μ-opiod receptor = μ-opiod receptor (Homo sapiens, UniProt P35372); conditions: relative to morphine; cited from earlier work
[3] = 2 mg/kg, cited from earlier work
[4] = cited from earlier work; remark: listed apart in the source
AAMU-Ab = assay: Competitive antigen ELISA, cross-reactivity of AAMU-Ab; format: binding, rabbit; conditions: 0 = absence of inhibition or inhibition no higher than 40% at the highest concentration tested (5×10^−3 M)
Protocol: (§1) Buffers and water without additives are filtered through millipore filters and kept for 1 week. BSA, antibodies, Tween™ 20 and horse radish peroxidase conjugates are added to these buffers and water just prior to use. Urine samples are usually collected 4 hours after drinking a cup of coffee (instant or brewed with approximately 100 mg of caffeine per cup) and stored at −80° C. The urine samples are diluted 10 times with sodium phosphate buffer (620 mosm, pH 7.50) and are subsequently diluted with water to give concentrations of AAMU and 1X no higher than 3×10^−6 M in the ELISA. All the pipettings are done with an eight-channel pipette, except those of the antibody and sample solutions. Starting with the last well, 100 μL of a carbonate buffer (100 mM, pH 9.6) containing 2.5 μg mL-1 antibodies are added to each well. After 90 min. at room temperature, the wells are washed three times with […] of TPB: isotonic sodium phosphate buffer (310 mosm, pH 7.50) containing 0.05% Tween™ 20.
(§2) After the initial wash, unoccupied sites are blocked by incubation for 90 min. at room temperature with 100 μL TBP containing 3% BSA. The wells are washed four times with 100 μL TPB. […] The microplate is gently shaken with an orbital shaker at room temperature for 3-4 hours. The wells are washed three times with 100 μL TPB containing 1% BSA and three times with water containing 0.05% Tween ™ 20. To the washed plate is added 150 μL of a substrate buffer composed of citric acid (25 mM) and sodium phosphate dibasic buffer (50 mM, pH 5.0) containing 0.06% hydrogen peroxide and 0.04% o-phenylenediamine hydrochloride.
(§3) Buffers and water without additives were filtered through millipore filters and kept for 1 week. BSA, antibodies, Tween ™ 20 and horse radish peroxidase conjugates were added to these buffers and water just prior to use. Urine samples were usually collected 4 hours after drinking a cup of coffee (instant or brewed with approximately 100 mg of caffeine per cup) and stored at 80° C. They were diluted 10 times with sodium phosphate buffer (620 mosm, pH 7.50) and were subsequently diluted with water to give concentrations of AAMU and 1X no higher than 3×10^−6 M in the ELISA. All the pipettings were done with an eight-channel pipette, except those of the antibody and sample solutions. Starting with the last well, 100 μL of a carbonate buffer (100 mM, pH 9.6) containing 2.5 μg mL^−1 antibodies was pipetted. After 90 min. at room temperature, the wells were washed three times with 100 μL of TPB: isotonic sodium phosphate buffer (310 mosm, pH 7.50) containing 0.05% Tween™ 20.
(§4) After the initial wash, unoccupied sites were blocked by incubation for 90 min. at room temperature with 100 μL TBP containing 3% BSA. The wells were washed four times with 100 μL TPB. […] The microplate was gently shaken with an orbital shaker at room temperature for 3-4 hours. The wells were washed three times with 100 μL with TPB containing 1% BSA and three times with water containing 0.05% Tween™ 20. To the washed plate was added 150 μL of a substrate buffer composed of citric acid (25 mM) and sodium phosphate dibasic buffer (50 mM, pH 5.0) containing 0.06% hydrogen peroxide and 0.04% o-phenylenediamine hydrochloride. After 20 min. at room temperature with shaking, the reaction was stopped with 50 μL of 2.5 N HCl.
(§5) The cross reactivities of AAMU-Ab and 1X-Ab were tested using a wide variety of caffeine metabolites and structural analogs (Table 5 below).

1X-Ab = assay: Competitive antigen ELISA, cross-reactivity of 1X-Ab; format: binding, rabbit; conditions: 0 = absence of inhibition or inhibition no higher than 40% at the highest concentration tested (5×10^−3 M)
Protocol: as §1, §2, §3, §4, §5

Caffeine-Ab = assay: Competitive antigen ELISA, antibody specificity of caffeine-Ab; format: binding, rabbit; conditions: ideal antibody specificity result hypothesized; 0 = no inhibition or no higher than 40% at 5×10^−3 M
Protocol: (§6) BSA, antibodies, Tween™ 20 and horse radish peroxidase are added to buffers and water just prior to use. Urine samples are usually collected four hours after drinking a cup of coffee (instant or brewed with approximately 100 mg of caffeine per cup) and stored at −20° C. as 1-mL aliquots in 1.5-mL microtubes. For the ELISA, the urine samples are diluted with isotonic sodium phosphate buffer, pH 7.5 (310 mosM) to give concentrations of caffeine, 1.7-DMX and 1,7-DMU no higher than 3×10^−6 M in the microtiter plate wells. Wells of the ELISA plate are washed with a Nunc-Immuno wash 12 washer. Sixteen milliliters of a solution of 6.6 μg ml^−1 of isolated IgG antibodies is prepared in a 100 mM sodium carbonate buffer, pH 9.6, and 150 μL of this solution is pipetted in each well of a microtiter plate using a eight channel pipet (Brinkmann Transferpette™-8 50-200 μL) and 200 μL Flex tips from Brinkmann). After coating the wells with antibodies at 4° C. for 20 hours, the wells are washed 3 times with the isotonic sodium phosphate buffer containing 0.05% Tween™ 20 (IPBT) and properly drained by inverting the plate and absorbing the liquid on to a piece of paper towel. Thirty milliliters of a solution of a IPBT solution containing 1% BSA is prepared and 150 μL of this solution is pipetted in each well using a eight channel pipet (Brinkmann Transferpette ™-8 50-200 μL) and 200 μL yellow tips (Sarstedt yellow tips for P200 Gilson Pipetman). After 3 hours at room temperature, the wells are washed 3 times with IPBT solution and drained. Samples of 400 μL for determination of caffeine, 1,7-DMX and 1,7-DMU are prepared in 1.5-mL microtubes using Sarstedt yellow tips and a P200 Gilson Pipetman. Then, 200 μL of each sample are pipetted in duplicate in a Falcon 96-well microtest tissue culture plate according to the pattern shown in FIG. 22, using Sarstedt yellow tips and a P200 Gilson Pipetman. Using an eight channel pipet (Brinkmann Transferpette™-8 50-200 μL) and changing the tips of the eight channel pipet (200μL Flex tips from Brinkmann) at each row, 150 μL of samples are transferred in the corresponding wells of a 96-well ELISA microtiter plate coated with antibodies. After the addition of the samples, the microtiter plates are covered and left standing at room temperature for 2 h. While the plate is left standing the substrate buffer without the hydrogen peroxide and o-phenylenediamine hydrochloride is prepared (25 mM citric acid and 50 mM sodium phosphate dibasic buffer, pH 5.0). The microtiter plate is washed 3 times with the IPBT solution and 3 times with a 0.05% Tween™ 20 solution and drained. Then, 50 μL of hydrogen peroxide and 40 mg of o-phenylenediamine are added to the substrate buffer. One hundred fifty microliters (150 μL) of the substrate buffer solution is then added to each well using a eight channel pipet (Brinkmann Transferpette™-8 50-200 μL) and 200 μL Flex tips (Brinkmann). The microtiter plate is covered and shaken for 25-30 min at room temperature and the enzymatic reaction is stopped by adding 50 μL/well of a 2.5 N HCl solution using an eight channel pipet (Brinkmann Transferpette™-8 50-200 μL) and 200L Flex tips (Brinkmann).

1,7-DMX-Ab = assay: Competitive antigen ELISA, antibody specificity of 1,7-DMX-Ab; format: binding, rabbit; conditions: ideal antibody specificity result hypothesized; 0 = no inhibition or no higher than 40% at 5×10^−3 M
Protocol: as §6

1,7-DMU-Ab = assay: Competitive antigen ELISA, antibody specificity of 1,7-DMU-Ab; format: binding, rabbit; conditions: ideal antibody specificity result hypothesized; 0 = no inhibition or no higher than 40% at 5×10^−3 M
Protocol: as §6

Sequence of μ-opiod receptor (P35372 whole entry): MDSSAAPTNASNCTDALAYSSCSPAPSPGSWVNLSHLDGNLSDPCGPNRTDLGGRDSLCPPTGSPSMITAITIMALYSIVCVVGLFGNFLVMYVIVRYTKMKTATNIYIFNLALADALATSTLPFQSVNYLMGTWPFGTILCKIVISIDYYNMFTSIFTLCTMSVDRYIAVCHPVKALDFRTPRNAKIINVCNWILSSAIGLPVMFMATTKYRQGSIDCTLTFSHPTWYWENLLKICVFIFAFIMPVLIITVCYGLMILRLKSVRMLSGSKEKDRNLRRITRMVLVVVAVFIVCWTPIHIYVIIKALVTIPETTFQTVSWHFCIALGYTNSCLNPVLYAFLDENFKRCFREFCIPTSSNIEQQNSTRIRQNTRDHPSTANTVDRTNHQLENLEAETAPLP

Row | SMILES | % Cross-Reaction AAMU-Ab (AAMU-Ab) | % Cross-Reaction 1X-Ab (1X-Ab) | % Cross-reaction Caffeine-Ab (Caffeine-Ab) | % Cross-reaction 1,7-DMX-Ab (1,7-DMX-Ab) | % Cross-reaction 1,7-DMU-Ab (1,7-DMU-Ab) | other results
1 | Nc1ccc(S(=O)(=O)c2ccc(N)cc2)cc1 [dapsone] | – | – | – | – | – | adverse reactions to dapsone ([1]; fast acetylators): 17%; adverse reactions to dapsone ([1]; slow acetylators): 46%
2 | CN(C)CCN1C(=O)c2cccc3cc(N)cc(c23)C1=O [Amonafide] | – | – | – | – | – | deaths ([2]; 300 mg/m^2, extremely fast acetylators): two women (both oriental) died from severe myelosuppression; response rate ([2]; individuals considered to be properly dosed): 30-50%; overall response rate ([2]; phase II trial, standard 300 mg/m^2 dose for all individuals): 18%
3 | COc1cccc(C2(O)CCCCC2CN(C)C)c1 (centres unmarked) [Tramadol] | – | – | – | – | – | affinity for the μ-opiod receptor, factor weaker than morphine (μ-opiod receptor): ~6000; side effects vs placebo ([3]; extensive metabolizers): caused side effects significantly more frequently than placebo; analgesic effect ([3]; extensive vs poor metabolizers): better analgesic in extensive metabolizers as compared to poor metabolizers
4 | COc1ccc2c(c1)[C@]13CCCC[C@@H]1[C@H](C2)N(C)CC3 [Dextromethorphan] | – | – | – | – | – | mean performance +/−SE ([4]; extensive metabolizers (EMs)): 95+/−0.5%; mean performance +/−SE ([4]; poor metabolizers (PMs), p<0.05): 86+/−6%
5 | Cn1cnc2[nH]c(=O)[nH]c(=O)c21 [7-Methyl Xanthine] | 0% | 0% | 0% | 0% | 0% | –
6 | Cn1c(=O)c2[nH]cnc2n(C)c1=O [1,3-Dimethyl Xanthine (Theophylline), 1,3-Dimethyl Xanthine] | 0% | 0.2% | 0% | 0% | 0% | –
